The results in this text go back to patent US10100032B2, “Crystalline forms of 3-(4-amino-1-oxo-1,3 dihydro-isoindol-2-yl)-piperidine-2,6-dione” (AMPLIO PHARMA, LLC, priority 2011, dated 2018).

Data set [1] is described as follows: Stability testing of lenalidomide cocrystals. The class given is physicochemical. On the set-up: key: the solids remained as the starting cocrystal material, indicating that they are stable under these conditions (“stable”); transformed partially or completely into a different crystalline material, indicating that they are not stable under these conditions (“not stable”). Particulars: stored at 40 degrees Celsius and 75% relative humidity (saturated NaCl) for 14 days, XRPD.

Data set [2] can be described thus: Water slurry analysis of lenalidomide cocrystals. The class given is physicochemical. On the set-up: key: If the cocrystal was intact, the cocrystal could be described as less soluble than the stable 3-(4-amino-1-oxo-1,3 dihydro-isoindol-2-yl)-piperidine-2,6-dione form in water (characterized as “stable”); the cocrystal transformation indicates that under those conditions the cocrystal is more soluble than the stable form of the 3-(4-amino-1-oxo-1,3 dihydro-isoindol-2-yl)-piperidine-2,6-dione in water (characterized as “transformed”). Particulars: slurry of ~8 to 10 mg of cocrystal in 1 mL of pure water, stirred for 24 hours, solid isolated by filtration and analyzed by XRPD. How it is done: The solubility of the cocrystals obtained in Examples 1, 2, 3, 4, 5, 6, 7, and 8 were compared to the stable form of the API in pure water by creating a slurry of ˜8 to 10 mg of cocrystal in 1 mL of water. The resulting slurry was stirred for 24 hours. The solid was isolated by filtration and analyzed by XRPD.

`Nc1cccc2c1CN(C1CCC(=O)NC1=O)C2=O` (centres unmarked) [gallic acid cocrystal of lenalidomide, 3-(4-amino-1-oxo-1,3-dihydroisoindol-2-yl)piperidine-2,6-dione-gallic acid cocrystal]: the Stability test result in data set [1] was “stable”. For the same molecule, the Water slurry result in data set [2] was “transformed”.
For `Nc1cccc2c1CN(C1CCC(=O)NC1=O)C2=O` (centres unmarked) [propyl gallate cocrystal of lenalidomide, 3-(4-amino-1-oxo-1,3-dihydroisoindol-2-yl)piperidine-2,6-dione-propylgallate cocrystal], in that order: “not stable” and “transformed”.
The like results for `Nc1cccc2c1CN(C1CCC(=O)NC1=O)C2=O` (centres unmarked) [ammonium chloride cocrystal of lenalidomide] [3-(4-amino-1-oxo-1,3-dihydroisoindol-2-yl)piperidine-2,6-dione-ammonium chloride cocrystal] were, in that order, “stable” and “transformed”.
For `Nc1cccc2c1CN(C1CCC(=O)NC1=O)C2=O` (centres unmarked) [malonic acid cocrystal of lenalidomide, 3-(4-amino-1-oxo-1,3-dihydroisoindol-2-yl)piperidine-2,6-dione-malonic acid cocrystal], in that order: “not stable” and “transformed”.
Turning to `Nc1cccc2c1CN(C1CCC(=O)NC1=O)C2=O` [L-tartaric acid cocrystal of lenalidomide] [3-(4-amino-1-oxo-1,3-dihydroisoindol-2-yl)piperidine-2,6-dione-L-tartaric acid cocrystal], the Stability test result in data set [1] is “not stable”. Besides, in data set [2], the Water slurry result is “transformed”.
As for `Nc1cccc2c1CN(C1CCC(=O)NC1=O)C2=O` (centres unmarked) [urea cocrystal of lenalidomide, 3-(4-amino-1-oxo-1,3-dihydroisoindo-2-yl)piperidine-2,6-dione-urea cocrystal], in data set [1], the Stability test result was “stable”. Besides, in data set [2], the Water slurry result is recorded as “transformed”.
On to `Nc1cccc2c1CN(C1CCC(=O)NC1=O)C2=O` (centres unmarked) [oxallic acid cocrystal of lenalidomide, 3-(4-amino-1-oxo-1,3-dihydroisoindol-2-yl)piperidine-2,6-dione and oxalic acid cocrystal], for which the Stability test result in data set [1] is given as “stable”. Besides, the Water slurry result in data set [2] is given as “transformed”.
